Source: patent US11884671B2, “Purinone compounds and their use in treating cancer” (ASTRAZENECA AB, priority 2018, dated 2024)

Experiments:
[1] = target: AURKA (Aurora A) (Homo sapiens (Human), UniProt O14965); experiment: Aurora-A enzyme assay (Z'-LYTE); type: biochemical; details: 10 μM ATP, arithmetic mean of two or more experiments; for IC50: read-out: AurA enz pIC50 (converted)
Protocol: (§1) The inhibitory activity of compounds against AURKA, AURKB, JAK1, JAK2 and JAK3 was determined in Z′-LYTE® assays run by ThermoFisher Scientific as part of their SelectScreen® Biochemical Kinase Profiling Service. The Z′-LYTE® biochemical assay format employs a fluorescence-based, coupled-enzyme format and is based on the differential sensitivity of phosphorylated and non-phosphorylated peptides to proteolytic cleavage. The peptide substrate is labeled with two fluorophores—one at each end—that make up a FRET pair. In the primary reaction, the kinase transfers the gamma-phosphate of ATP to a single tyrosine, serine or threonine residue in a synthetic FRET-peptide. In the secondary reaction, a site-specific protease recognises and cleaves non-phosphorylated FRET-peptides. Phosphorylation of FRET-peptides suppresses cleavage by the Development Reagent. Cleavage disrupts FRET between the donor (i.e., coumarin) and acceptor (i.e., fluorescein) fluorophores on the FRET-peptide, whereas uncleaved, phosphorylated FRET-peptides maintain FRET. A ratiometric method, which calculates the ratio (the Emission Ratio) of donor emission to acceptor emission after excitation of the donor fluorophore at 400 nm, is used to quantitate reaction progress. Both cleaved and uncleaved FRET-peptides contribute to the fluorescence signals and therefore to the Emission Ratio. The extent of phosphorylation of the FRET-peptide can be calculated from the Emission Ratio.
(§2) 10 point three-fold dilution compound concentration-response curves, with a top concentration of 10 μM were generated from 10 mM stocks of compound solubilised in DMSO. All assays were performed in black, non-binding, low volume Corning 384-well plates (cat. #4514, Corning), in a total reaction volume of 10 μL and 1% (v/v) final DMSO concentration. […] The kinase reaction was then quenched by the addition of 5 μL of Development Reagent (ThermoFisher Scientific proprietary). […] IC50 values were calculated using XLfit software (IDBS Ltd, Surrey, UK), with the curve fit to model number 205 (sigmoidal dose-response model).
Aurora A (AurA): The 2×AURKA (Aurora A)/Ser/Thr 01 (ThermoFisher Scientific proprietary) mixture was prepared in 50 mM HEPES pH 7.5, 0.01% BRIJ-35, 10 mM MgCl2, 1 mM EGTA. […] After the 1 hour Kinase Reaction incubation, 5 μL of a 1:4096 dilution of Development Reagent was added.

[2] = target: JAK3 (Homo sapiens (Human), UniProt P52333); experiment: JAK3 enzyme assay (Z'-LYTE); type: biochemical; details: 10 μM ATP, arithmetic mean of two or more experiments; for IC50: read-out: JAK3 enz pIC50 (converted)
Chain of JAK3 (P52333 whole entry): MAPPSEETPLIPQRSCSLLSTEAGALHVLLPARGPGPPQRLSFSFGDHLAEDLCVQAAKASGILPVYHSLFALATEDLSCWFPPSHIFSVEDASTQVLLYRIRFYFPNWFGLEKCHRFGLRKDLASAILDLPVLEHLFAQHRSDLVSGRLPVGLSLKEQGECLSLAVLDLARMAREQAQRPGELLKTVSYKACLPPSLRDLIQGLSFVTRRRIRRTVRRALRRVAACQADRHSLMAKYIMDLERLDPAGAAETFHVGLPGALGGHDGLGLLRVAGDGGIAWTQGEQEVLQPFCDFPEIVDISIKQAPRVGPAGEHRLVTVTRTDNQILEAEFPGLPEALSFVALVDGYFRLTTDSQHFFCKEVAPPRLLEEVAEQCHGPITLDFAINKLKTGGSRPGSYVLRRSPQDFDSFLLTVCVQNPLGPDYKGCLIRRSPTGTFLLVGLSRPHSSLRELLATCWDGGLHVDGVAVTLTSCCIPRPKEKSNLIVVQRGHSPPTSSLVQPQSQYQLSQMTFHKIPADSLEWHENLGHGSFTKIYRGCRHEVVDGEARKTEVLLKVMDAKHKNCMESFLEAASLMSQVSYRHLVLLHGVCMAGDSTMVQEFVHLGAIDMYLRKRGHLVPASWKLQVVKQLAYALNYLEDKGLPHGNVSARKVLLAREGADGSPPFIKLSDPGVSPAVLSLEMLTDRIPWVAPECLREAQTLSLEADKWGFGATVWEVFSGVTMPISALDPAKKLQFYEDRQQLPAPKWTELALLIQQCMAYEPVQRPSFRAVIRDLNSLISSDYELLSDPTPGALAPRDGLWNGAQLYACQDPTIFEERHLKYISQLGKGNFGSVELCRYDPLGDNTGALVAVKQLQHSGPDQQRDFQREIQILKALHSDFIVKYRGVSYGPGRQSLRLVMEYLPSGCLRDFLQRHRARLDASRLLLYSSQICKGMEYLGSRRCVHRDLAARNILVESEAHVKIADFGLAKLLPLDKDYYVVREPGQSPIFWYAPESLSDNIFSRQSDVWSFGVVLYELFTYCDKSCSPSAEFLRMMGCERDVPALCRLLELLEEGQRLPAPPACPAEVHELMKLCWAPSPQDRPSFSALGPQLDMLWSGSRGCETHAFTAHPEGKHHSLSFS
Protocol: as §1, §2
JAK3: The 2×JAK3/Tyr 06 (ThermoFisher Scientific proprietary) mixture was prepared in 50 mM HEPES pH 7.5. 0.01% BRIJ-35, 10 mM MgCl2, 1 mM EGTA. […] After the 1 hour Kinase Reaction incubation, 5 μL of a 1:128 dilution of Development Reagent was added.

[3] = target: TTK (Homo sapiens (Human), UniProt P33981); experiment: TTK enzyme assay (LanthaScreen Eu Kinase Binding); details: arithmetic mean of two or more experiments; for IC50: read-out: TTK enz pIC50 (converted)
Chain of TTK (P33981 whole entry): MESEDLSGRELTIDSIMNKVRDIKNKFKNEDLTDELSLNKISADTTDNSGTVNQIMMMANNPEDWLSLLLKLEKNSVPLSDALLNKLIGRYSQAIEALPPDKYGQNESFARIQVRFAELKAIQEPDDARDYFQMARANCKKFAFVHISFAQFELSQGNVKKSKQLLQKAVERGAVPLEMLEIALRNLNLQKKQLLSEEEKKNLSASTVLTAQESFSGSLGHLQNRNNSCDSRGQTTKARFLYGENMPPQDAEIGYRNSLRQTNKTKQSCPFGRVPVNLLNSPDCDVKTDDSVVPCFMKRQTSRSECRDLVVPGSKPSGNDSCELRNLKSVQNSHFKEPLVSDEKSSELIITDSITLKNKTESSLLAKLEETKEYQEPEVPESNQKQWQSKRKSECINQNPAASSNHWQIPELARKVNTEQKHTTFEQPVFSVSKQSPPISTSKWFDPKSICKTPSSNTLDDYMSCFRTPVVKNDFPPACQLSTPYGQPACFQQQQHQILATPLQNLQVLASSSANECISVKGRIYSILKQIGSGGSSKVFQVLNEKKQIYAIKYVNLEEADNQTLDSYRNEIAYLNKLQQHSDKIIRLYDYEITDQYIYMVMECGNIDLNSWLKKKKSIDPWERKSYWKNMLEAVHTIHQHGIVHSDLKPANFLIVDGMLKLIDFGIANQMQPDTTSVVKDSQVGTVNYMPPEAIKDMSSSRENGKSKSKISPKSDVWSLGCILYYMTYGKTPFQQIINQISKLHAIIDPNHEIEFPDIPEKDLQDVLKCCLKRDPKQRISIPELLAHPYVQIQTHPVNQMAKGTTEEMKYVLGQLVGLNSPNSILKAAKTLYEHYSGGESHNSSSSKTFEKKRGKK
Protocol: The inhibitory activity of compounds against TTK was determined in a LanthaScreen® Eu Kinase Binding assay run by ThermoFisher Scientific as part of their SelectScreen® Biochemical Kinase Profiling Service. The LanthaScreen® Eu Kinase Binding assay format uses binding of an Alexa Fluor® conjugate or “tracer” to a kinase, which is detected by addition of a Eu-labeled anti-tag antibody. […] The degree of FRET measured in the assay is used to determine the binding of a compound.
10 point three-fold dilution compound concentration-response curves, with a top concentration of 10 μM were generated from 10 mM stocks of compound solubilised in DMSO. All assays were performed in white, low volume Greiner 384-well plates (cat. #784207, Greiner), in a total reaction volume of 16 μL and 1% (v/v) final DMSO concentration. […] Plates were then read using a fluorescence plate reader. IC50 values were calculated using XLfit software (IDBS Ltd, Surrey, UK), with the curve fit to model number 205 (sigmoidal dose-response model).

[4] = target: JAK2 (Homo sapiens (Human), UniProt O60674); experiment: JAK2 enzyme assay (Z'-LYTE); type: biochemical; details: 25 μM ATP, arithmetic mean of two or more experiments; for IC50: read-out: JAK2 enz pIC50 (converted)
Chain of JAK2 (O60674 whole entry): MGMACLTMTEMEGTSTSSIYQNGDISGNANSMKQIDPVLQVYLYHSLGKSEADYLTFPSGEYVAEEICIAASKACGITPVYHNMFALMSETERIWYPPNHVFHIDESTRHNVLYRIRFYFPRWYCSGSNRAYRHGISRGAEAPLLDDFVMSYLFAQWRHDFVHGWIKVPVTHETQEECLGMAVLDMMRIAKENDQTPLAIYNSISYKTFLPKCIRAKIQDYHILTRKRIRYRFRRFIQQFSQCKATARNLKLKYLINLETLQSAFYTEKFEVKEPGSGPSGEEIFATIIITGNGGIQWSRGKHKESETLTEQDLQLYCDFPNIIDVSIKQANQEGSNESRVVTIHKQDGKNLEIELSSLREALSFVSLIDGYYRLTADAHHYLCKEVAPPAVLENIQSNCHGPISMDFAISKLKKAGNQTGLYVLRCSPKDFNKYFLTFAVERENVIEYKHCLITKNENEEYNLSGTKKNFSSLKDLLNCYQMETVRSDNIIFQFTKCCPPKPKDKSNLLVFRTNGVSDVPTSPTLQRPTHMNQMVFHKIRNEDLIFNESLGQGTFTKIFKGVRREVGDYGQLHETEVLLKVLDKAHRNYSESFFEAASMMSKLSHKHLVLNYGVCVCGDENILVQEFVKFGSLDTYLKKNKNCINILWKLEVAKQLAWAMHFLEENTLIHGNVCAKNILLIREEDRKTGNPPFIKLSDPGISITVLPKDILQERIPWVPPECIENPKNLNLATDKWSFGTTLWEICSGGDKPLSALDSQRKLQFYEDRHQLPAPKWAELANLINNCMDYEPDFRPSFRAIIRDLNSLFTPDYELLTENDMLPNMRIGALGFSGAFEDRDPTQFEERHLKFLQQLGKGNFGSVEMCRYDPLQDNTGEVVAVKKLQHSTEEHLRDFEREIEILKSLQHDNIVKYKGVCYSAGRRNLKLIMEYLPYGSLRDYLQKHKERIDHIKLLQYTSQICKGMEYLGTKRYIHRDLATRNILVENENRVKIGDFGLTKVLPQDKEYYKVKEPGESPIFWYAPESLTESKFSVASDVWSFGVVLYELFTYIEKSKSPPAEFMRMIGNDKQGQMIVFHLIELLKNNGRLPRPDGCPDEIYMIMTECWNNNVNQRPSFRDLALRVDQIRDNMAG
Protocol: as §1, §2
JAK2: The 2×JAK2/Tyr 06 (ThermoFisher Scientific proprietary) mixture was prepared in 50 mM HEPES pH 7.5, 0.01% BRIJ-35, 10 mM MgCl2, 1 mM EGTA. […] After the 1 hour Kinase Reaction incubation, 5 μL of a 1:128 dilution of Development Reagent was added.

[5] = target: AURKB (Aurora B) (Homo sapiens (Human), UniProt Q96GD4); experiment: Aurora-B enzyme assay (Z'-LYTE); type: biochemical; details: 75 μM ATP, arithmetic mean of two or more experiments; for IC50: read-out: AurB enz pIC50 (converted)
Chain of AURKB (Aurora B) (Q96GD4 whole entry): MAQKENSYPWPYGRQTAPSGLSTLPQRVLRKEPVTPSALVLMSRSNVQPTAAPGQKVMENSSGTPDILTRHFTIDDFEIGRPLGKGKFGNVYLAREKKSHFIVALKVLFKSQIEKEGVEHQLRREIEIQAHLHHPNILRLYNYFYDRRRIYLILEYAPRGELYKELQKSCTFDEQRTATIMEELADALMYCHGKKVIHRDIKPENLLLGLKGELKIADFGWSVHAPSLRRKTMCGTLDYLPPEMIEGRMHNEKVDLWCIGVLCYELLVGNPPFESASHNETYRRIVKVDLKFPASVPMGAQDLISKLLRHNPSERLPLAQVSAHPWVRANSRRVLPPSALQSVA
Protocol: as §1, §2
Aurora B (AurB): The 2×AURKB (Aurora B)/Ser/Thr 01 (ThermoFisher Scientific proprietary) mixture was prepared in 50 mM HEPES pH 7.5, 0.01% BRIJ-35, 10 mM MgCl2, 1 mM EGTA. […] After the 1 hour Kinase Reaction incubation, 5 μL of a 1:4096 dilution of Development Reagent was added.

[6] = target: JAK1 (Homo sapiens (Human), UniProt P23458); experiment: JAK1 enzyme assay (Z'-LYTE); type: biochemical; details: 75 μM ATP, arithmetic mean of two or more experiments; for IC50: read-out: JAK1 enz pIC50 (converted)
Chain of JAK1 (P23458 whole entry): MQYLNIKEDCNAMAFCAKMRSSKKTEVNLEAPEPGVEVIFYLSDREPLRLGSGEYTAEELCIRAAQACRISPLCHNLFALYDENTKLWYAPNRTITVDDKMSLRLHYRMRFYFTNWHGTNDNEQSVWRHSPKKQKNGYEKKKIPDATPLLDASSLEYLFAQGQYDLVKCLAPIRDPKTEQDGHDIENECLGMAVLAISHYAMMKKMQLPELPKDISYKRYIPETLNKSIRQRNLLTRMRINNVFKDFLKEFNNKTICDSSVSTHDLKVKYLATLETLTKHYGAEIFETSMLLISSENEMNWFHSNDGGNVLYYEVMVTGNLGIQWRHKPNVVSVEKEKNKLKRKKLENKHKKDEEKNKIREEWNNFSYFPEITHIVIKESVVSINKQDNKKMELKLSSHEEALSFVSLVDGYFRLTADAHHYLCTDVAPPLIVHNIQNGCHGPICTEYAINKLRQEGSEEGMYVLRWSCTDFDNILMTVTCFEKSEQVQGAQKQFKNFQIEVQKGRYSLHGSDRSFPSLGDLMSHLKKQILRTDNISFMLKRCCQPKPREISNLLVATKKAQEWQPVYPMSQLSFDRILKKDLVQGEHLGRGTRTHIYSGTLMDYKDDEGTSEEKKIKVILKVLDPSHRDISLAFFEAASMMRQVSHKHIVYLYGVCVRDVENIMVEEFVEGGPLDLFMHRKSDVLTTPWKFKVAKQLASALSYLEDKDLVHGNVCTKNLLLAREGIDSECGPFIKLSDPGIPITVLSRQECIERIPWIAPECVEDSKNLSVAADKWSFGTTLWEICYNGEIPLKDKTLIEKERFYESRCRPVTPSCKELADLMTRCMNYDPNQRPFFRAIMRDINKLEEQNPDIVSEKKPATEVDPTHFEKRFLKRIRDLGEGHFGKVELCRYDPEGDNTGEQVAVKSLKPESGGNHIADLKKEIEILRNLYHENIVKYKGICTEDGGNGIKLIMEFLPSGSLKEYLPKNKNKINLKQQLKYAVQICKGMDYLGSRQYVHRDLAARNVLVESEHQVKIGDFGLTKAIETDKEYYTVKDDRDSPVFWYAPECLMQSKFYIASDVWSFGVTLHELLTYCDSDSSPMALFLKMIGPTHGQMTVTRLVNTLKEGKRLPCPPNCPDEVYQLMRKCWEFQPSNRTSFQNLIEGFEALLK
Protocol: as §1, §2
JAK1: The 2×JAK/Tyr 06 (ThermoFisher Scientific proprietary) mixture was prepared in 50 mM HEPES pH 6.5, 0.01% BRIJ-35, 10 mM MgCl2, 1 mM EGTA, 0.02% NaN3. […] After the 1 hour Kinase Reaction incubation, 5 μL of a 1:128 dilution of Development Reagent was added.

Chain of AURKA (Aurora A) (O14965 whole entry): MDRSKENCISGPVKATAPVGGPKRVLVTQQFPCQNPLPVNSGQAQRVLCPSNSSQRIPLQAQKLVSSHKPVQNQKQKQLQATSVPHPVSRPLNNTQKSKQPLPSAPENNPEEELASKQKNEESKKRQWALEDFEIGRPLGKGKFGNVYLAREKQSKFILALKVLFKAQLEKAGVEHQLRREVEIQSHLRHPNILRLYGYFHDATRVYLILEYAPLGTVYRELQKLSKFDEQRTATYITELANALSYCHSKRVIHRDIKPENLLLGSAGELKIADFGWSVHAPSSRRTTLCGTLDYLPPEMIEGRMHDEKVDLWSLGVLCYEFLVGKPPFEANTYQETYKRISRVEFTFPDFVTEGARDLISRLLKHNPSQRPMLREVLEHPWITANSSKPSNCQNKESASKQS

| SMILES | IC50 [1] | IC50 [2] | IC50 [3] | IC50 [4] | IC50 [5] | IC50 [6] | AurA enz pIC50 [1] | JAK3 enz pIC50 [2] | TTK enz pIC50 [3] | JAK2 enz pIC50 [4] | AurB enz pIC50 [5] | JAK1 enz pIC50 [6] |
| --- | --- | --- | --- | --- | --- | --- | --- | --- | --- | --- | --- | --- |
| Cc1cc2nccnc2cc1Nc1ncc2c(n1)n([C@H]1CC[C@@](C)(O)CC1)c(=O)n2C [Example 19, 9-((1s,4s)-4-hydroxy-4-methylcyclohexyl)-7-methyl-2-((7-methylquinoxalin-6-yl)amino)-7,9-dihydro-8H-purin-8-one] | > 10 µM | > 10 µM | 0.2 µM | > 10 µM | > 10 µM | > 10 µM |  |  |  |  |  |  |
| Cc1cc2nccnc2cc1Nc1ncc2c(n1)n([C@]1(C)CC[C@H](O)CC1)c(=O)n2C [Example 20, 9-((1s,4s)-4-hydroxy-1-methylcyclohexyl)-7-methyl-2-((7-methylquinoxalin-6-yl)amino)-7,9-dihydro-8H-purin-8-one] |  |  |  |  |  |  | <5 | <5 | 6.4 | <5 | <5 | <5 |
| Cc1cc2nnccc2cc1Nc1ncc2c(n1)n([C@H]1CCOC1)c(=O)n2C [Example 21, (S)-7-methyl-2-((7-methylcinnolin-6-yl)amino)-9-(tetrahydrofuran-3-yl)-7,9-dihydro-8H-purin-8-one] |  |  |  |  |  |  | <5 | <5 | 6.4 | <5 | <5 | <5 |
| Cc1cc2nccnc2cc1Nc1ncc2c(n1)n([C@H]1CCOC1)c(=O)n2C [Example 22, (S)-7-methyl-2-((7-methylquinoxalin-6-yl)amino)-9-(tetrahydrofuran-3-yl)-7,9-dihydro-8H-purin-8-one] |  |  |  |  |  |  | <5 | <5 | 5.5 | <5 | <5 | <5 |
| Cc1cc2nnccc2cc1Nc1ncc2c(n1)n([C@@H]1CCOC1)c(=O)n2C [Example 23, (R)-7-methyl-2-((7-methylcinnolin-6-yl)amino)-9-(tetrahydrofuran-3-yl)-7,9-dihydro-8H-purin-8-one] |  |  |  |  |  |  | <5 | <5 | 5.9 | <5 | <5 | <5 |
| Cc1cc2nccnc2cc1Nc1ncc2c(n1)n([C@@H]1CCOC1)c(=O)n2C [Example 24, (R)-7-methyl-2-((7-methylquinoxalin-6-yl)amino)-9-(tetrahydrofuran-3-yl)-7,9-dihydro-8H-purin-8-one] |  |  |  |  |  |  | <5 | <5 | 5.6 | <5 | <5 | <5 |
| Cc1cc2nnccc2cc1Nc1ncc2c(n1)n([C@@H]1CCCOC1)c(=O)n2C [Example 25, (R)-7-methyl-2-((7-methylcinnolin-6-yl)amino)-9-(tetrahydro-2H-pyran-3-yl)-7,9-dihydro-8H-purin-8-one] |  |  |  |  |  |  | <5 | <5 | 6.2 | <5 | <5 | <5 |
| Cc1cc2nccnc2cc1Nc1ncc2c(n1)n([C@@H]1CCCOC1)c(=O)n2C [Example 26, (R)-7-methyl-2-((7-methylquinoxalin-6-yl)amino)-9-(tetrahydro-2H-pyran-3-yl)-7,9-dihydro-8H-purin-8-one] |  |  |  |  |  |  | <5 | <5 | 5.8 | <5 | <5 | <5 |
| Cc1cc2nnccc2cc1Nc1ncc2c(n1)n([C@H]1CCCOC1)c(=O)n2C [Example 27, (S)-7-methyl-2-((7-methylcinnolin-6-yl)amino)-9-(tetrahydro-2H-pyran-3-yl)-7,9-dihydro-8H-purin-8-one] |  |  |  |  |  |  | <5 | <5 | 6.4 | <5 | <5 | <5 |
| Cc1cc2nccnc2cc1Nc1ncc2c(n1)n([C@H]1CCCOC1)c(=O)n2C [Example 28, (S)-7-methyl-2-((7-methylquinoxalin-6-yl)amino)-9-(tetrahydro-2H-pyran-3-yl)-7,9-dihydro-8H-purin-8-one] |  |  |  |  |  |  | 5.3 | <5 | 6.1 | <5 | <5 | <5 |
| Cc1cnc2cc(Nc3ncc4c(n3)n(C3CCOCC3)c(=O)n4C)c(C)cc2n1 [Example 33, 2-((2,7-dimethylquinoxalin-6-yl)amino)-7-methyl-9-(tetrahydro-2H-pyran-4-yl)-7,9-dihydro-8H-purin-8-one] | > 10 µM | > 10 µM | 1.26 µM | > 10 µM | > 10 µM | > 10 µM |  |  |  |  |  |  |
| Cc1cnc2cc(C)c(Nc3ncc4c(n3)n(C3CCOCC3)c(=O)n4C)cc2n1 [Example 34, 2-((3,7-dimethylquinoxalin-6-yl)amino)-7-methyl-9-(tetrahydro-2H-pyran-4-yl)-7,9-dihydro-8H-purin-8-one] | > 10 µM | > 10 µM | 5.01 µM | > 10 µM | > 10 µM | > 10 µM |  |  |  |  |  |  |
| Cc1cc2ncccc2cc1Nc1ncc2c(n1)n(C1CCS(=O)(=O)CC1)c(=O)n2C [Example 35, 9-(1,1-dioxidotetrahydro-2H-thiopyran-4-yl)-7-methyl-2-((7-methylquinolin-6-yl)amino)-7,9-dihydro-8H-purin-8-one] |  |  |  |  |  |  | <5 | 5.2 | 5.9 | <5 | <5 | <5 |
| Cc1cc2ncccc2cc1Nc1ncc2c(n1)n(C1COC1)c(=O)n2C [Example 36, 7-methyl-2-((7-methylquinolin-6-yl)amino)-9-(oxetan-3-yl)-7,9-dihydro-8H-purin-8-one] |  |  |  |  |  |  | <5 | <5 | 6.0 | <5.1 | <5 | <5 |
